Data on four molecules can be found in patent publication US10093713B2, “GIP-GLP-1 dual agonist compounds and methods” (priority 2013, dated 2018).

One series has as its target T1, human GLP-1 R (Homo sapiens, UniProt P43220).
T1 construct: expressed in transfected cells
Description: Human GLP-1 receptor (GLP-1 R) activity assay, cAMP induction (AlphaScreen) in HEK293 cells. It counts as cell-based. A digest of the protocol: (§1)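 Stable HEK293 clones expressing human GIP R or GLP-1 R, seeded 1 day before; cells washed in Tyrode's buffer (10 mM HEPES, pH 7.4), stimulated, then lysed. cAMP measured by AlphaScreen bead competition (1 h, room temperature, dark). EC50 = concentration giving half-maximal cAMP elevation, from curves of absolute cAMP (nM) vs log concentration.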
For orientation: In Alpha technology, singlet oxygen from a donor bead excites a nearby acceptor bead.

The nature of series [1]: Pharmacokinetics of selected compounds in mice. The series is classed as in vivo, C57BL/6J mice. The following applies: male, C57BL/6J, mouse, plasma; for bioavailability: subcutaneous, AUCinf (s.c.)/AUCinf (i.v.)x100, values marked * capped to 100%. A digest of the protocol:
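Male C57BL/6J mice (~25 g) got single s.c. or i.v. bolus (50, 100 or 200 nmol/kg) in mannitol phosphate buffer, pH 7.5; plasma sampled at 8 timepoints to 72 h (s.c.) or 48 h (i.v.), two mice per point, measured by LC-MS/MS. Non-compartmental T½, Tmax and bioavailability (AUCinf s.c./i.v.) from mean concentrations.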

For a further series, the target named is T2, human GIP R (Homo sapiens, UniProt P48546).
T2 construct: expressed in transfected cells
T2 sequence (P48546 22-466): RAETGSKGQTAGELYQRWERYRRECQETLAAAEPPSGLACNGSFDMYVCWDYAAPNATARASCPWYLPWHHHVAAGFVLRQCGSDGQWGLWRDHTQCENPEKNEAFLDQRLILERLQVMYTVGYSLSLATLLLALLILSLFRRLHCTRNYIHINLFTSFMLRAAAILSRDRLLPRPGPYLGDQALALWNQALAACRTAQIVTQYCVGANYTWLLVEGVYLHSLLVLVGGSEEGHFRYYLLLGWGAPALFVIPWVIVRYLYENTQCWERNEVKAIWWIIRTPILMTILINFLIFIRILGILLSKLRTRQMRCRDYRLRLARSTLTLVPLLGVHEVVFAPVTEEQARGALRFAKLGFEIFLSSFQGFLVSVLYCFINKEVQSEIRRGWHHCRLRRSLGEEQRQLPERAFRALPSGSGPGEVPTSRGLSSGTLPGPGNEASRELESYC
Description: Human GIP receptor (GIP R) activity assay, cAMP induction (AlphaScreen) in HEK293 cells. The series is classed as cell-based. The following applies: read-out: hGIP-R cAMP EC50 average value. A digest of the protocol:
as §1

Series [2] has as its target T3, human GIP receptor (human) (UniProt P48546).
T3 sequence: T2 sequence (P48546 22-466)
Kind of series: cell-based or functional assay.

The mark [3] stands for this setting: Table 2, HEK293 cells expressing human GLP-1 R, read-out: hGLP1-R cAMP EC50 average value.
Setting [4] is: iv, single i.v. bolus, read-out: T½ terminal elimination half-life, i.v. (converted).
[5] abbreviates: sc, single s.c. bolus, read-out: T½ terminal elimination half-life, s.c. (converted).
Where [6] appears, read: Table 2, HEK293 cells expressing human GIP R.

pEC50: −log10 of the molar value. Read-outs that look alike come from different tables or passages of the source. *1 amine or outer side, *2 acyl side, *3 side chain or, on linkers, in order; H or OH if unused. Where a SMILES comes first, the peptide text is derived from it. Side-chain parts run from the residue outwards. [ ]: non-standard residue; d: D form. The star is where a group is joined. C20 diacid = O=C(O)CCCCCCCCCCCCCCCCCCC(=O)*; γGlu = O=C(O)[C@H](CCC(=O)[*:2])N[*:1]; AEEA = NCCOCCOCC(=O)O; Aib = CC(C)(N)C(=O)O

T1 sequence (P43220 24-463): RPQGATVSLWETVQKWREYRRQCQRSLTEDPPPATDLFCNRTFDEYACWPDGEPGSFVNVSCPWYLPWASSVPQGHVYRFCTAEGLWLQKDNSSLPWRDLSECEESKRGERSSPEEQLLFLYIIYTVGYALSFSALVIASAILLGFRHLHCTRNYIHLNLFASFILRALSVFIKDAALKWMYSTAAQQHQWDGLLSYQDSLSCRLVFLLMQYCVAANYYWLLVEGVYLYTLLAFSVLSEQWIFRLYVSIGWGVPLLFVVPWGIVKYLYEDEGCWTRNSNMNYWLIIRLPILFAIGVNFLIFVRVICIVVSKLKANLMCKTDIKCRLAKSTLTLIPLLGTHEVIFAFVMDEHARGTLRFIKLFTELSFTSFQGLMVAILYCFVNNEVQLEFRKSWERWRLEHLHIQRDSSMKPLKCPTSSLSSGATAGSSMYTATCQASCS

In the case of `CC[C@H](C)[C@H](NC(=O)[C@H](CO)NC(=O)[C@H](Cc1ccc(O)cc1)NC(=O)[C@H](CC(=O)O)NC(=O)[C@H](CO)NC(=O)[C@@H](NC(=O)[C@H](Cc1ccccc1)NC(=O)[C@@H](NC(=O)CNC(=O)[C@H](CCC(=O)O)NC(=O)[C@@H](C)NC(=O)[C@@H](N)Cc1ccc(O)cc1)[C@@H](C)O)[C@@H](C)O)C(=O)N[C@@H](C)C(=O)N[C@@H](CC(C)C)C(=O)N[C@@H](CCC(=O)O)C(=O)N[C@@H](CCCCN)C(=O)N[C@@H](CCCCNC(=O)COCCOCCNC(=O)COCCOCCNC(=O)CC[C@H](NC(=O)CCCCCCCCCCCCCCCCCCC(=O)O)C(=O)O)C(=O)N[C@@H](C)C(=O)N[C@@H](CCC(N)=O)C(=O)N[C@@H](CCCNC(=N)N)C(=O)N[C@@H](C)C(=O)N[C@@H](Cc1ccccc1)C(=O)N[C@H](C(=O)N[C@@H](CCC(=O)O)C(=O)N[C@@H](Cc1c[nH]c2ccccc12)C(=O)N[C@@H](CC(C)C)C(=O)N[C@@H](CC(C)C)C(=O)N[C@@H](C)C(=O)N[C@@H](CCC(N)=O)C(=O)NCC(=O)N1CCC[C@H]1C(=O)N[C@@H](CO)C(=O)N[C@@H](CO)C(=O)NCC(=O)N[C@@H](C)C(=O)N1CCC[C@H]1C(=O)N1CCC[C@H]1C(=O)N1CCC[C@H]1C(=O)N[C@@H](CO)C(N)=O)C(C)C` [Compound 32] (H-Y[dA]EGTFTSDYSIALEKK([AEEA-AEEA-γGlu-C20 diacid])AQRAFVEWLLAQGPSSGAPPPS-NH2), the pEC50 at human GLP-1 R (setting [3]) was 10.40; on human GLP-1 R (Table 3, most comprehensive data, read-out: hGLP-1-R cAMP EC50 average value), 10.25; at human GIP R (setting [6]) it was 10.80; at human GIP R (Table 3, most comprehensive data), 10.74. Moreover, the half-life was 17.4 h in series [1] (setting [4]) and 11.8 h in series [1] (setting [5]). Also, the bioavailability in series [1] came to 100%. Besides, the Tmax in series [1] (sc, single s.c. bolus) was 8 h.
As to `CC[C@H](C)[C@H](NC(=O)[C@H](CO)NC(=O)[C@H](CC(C)C)NC(=O)[C@H](CC(=O)O)NC(=O)[C@H](CO)NC(=O)[C@@H](NC(=O)[C@H](Cc1ccccc1)NC(=O)[C@@H](NC(=O)CNC(=O)[C@H](CCC(=O)O)NC(=O)C(C)(C)NC(=O)[C@@H](N)Cc1ccc(O)cc1)[C@@H](C)O)[C@@H](C)O)C(=O)N[C@@H](C)C(=O)N[C@@H](CC(C)C)C(=O)N[C@@H](CCC(=O)O)C(=O)N[C@@H](CCCCN)C(=O)N[C@@H](CCCCNC(=O)COCCOCCNC(=O)COCCOCCNC(=O)CC[C@H](NC(=O)CCCCCCCCCCCCCCCCCCC(=O)O)C(=O)O)C(=O)N[C@@H](C)C(=O)N[C@@H](CCC(N)=O)C(=O)N[C@@H](CCCNC(=N)N)C(=O)N[C@@H](C)C(=O)N[C@@H](Cc1ccccc1)C(=O)N[C@H](C(=O)N[C@@H](CCC(=O)O)C(=O)N[C@@H](Cc1c[nH]c2ccccc12)C(=O)N[C@@H](CC(C)C)C(=O)N[C@@H](CC(C)C)C(=O)N[C@@H](C)C(=O)N[C@@H](CCC(N)=O)C(=O)N[C@@H](CCCCN)C(=O)N1CCC[C@H]1C(=O)N[C@@H](CO)C(=O)N[C@@H](CO)C(=O)NCC(=O)N[C@@H](C)C(=O)N1CCC[C@H]1C(=O)N1CCC[C@H]1C(=O)N1CCC[C@H]1C(=O)N[C@@H](CO)C(N)=O)C(C)C` [Compound 34] (H-Y[Aib]EGTFTSDLSIALEKK([AEEA-AEEA-γGlu-C20 diacid])AQRAFVEWLLAQKPSSGAPPPS-NH2), the pEC50 is 10.82 at human GLP-1 R (setting [3]) and 10.92 at human GIP R (setting [6]). For the same molecule, the half-life in series [1] (setting [4]) is 14.9 h; in series [1] (setting [5]), 17.1 h. In series [1], this molecule had a bioavailability of 79%. Also, the Tmax in series [1] (sc, single s.c. bolus) was 8 h.
In series [2], “hGIP (from UniProt P09681 52-93) (ligand)” gave an EC50, hGIP-R cAMP of 0.003 nM.
Still for that read-out and setting: as for “hGLP-1 (from UniProt P01275 92-128) (ligand)”, the figure is above 10 nM.

As a reminder, the pEC50 is −log10 of the EC50, conventionally taken in molar units. As usually defined, the half-life is the time in which the quantity being followed falls by half. As a reminder, the bioavailability is the share of a dose that reaches the circulation, judged against a reference dose that is usually intravenous. Read a high bioavailability as good availability. The term Tmax denotes the time at which the peak concentration occurs.
